Like-named read-outs stand apart in the source and are kept apart here.
Columns and labels:
[1] = tested on: lymphocyte proliferation (thymus cells of normal BALB/c mice); assay: Comitogen-induced thymocyte proliferation procedure (LAF); format: cell-based; settings: Mus musculus, read-out: LAF IC50
Experimental: (§1) Immunosuppressive activity for representative compounds of this invention was evaluated in an in vitro standard pharmacological test procedure to measure lymphocyte proliferation (LAF) and in three in vivo standard pharmacological test procedures. The pinch skin graft test procedure measures the immunosuppressive activity of the compound tested as well as the ability of the compound tested to inhibit or treat transplant rejection. The adjuvant arthritis standard pharmacological test procedure, which measures the ability of the compound tested to inhibit immune mediated inflammation. The adjuvant arthritis test procedure is a standard pharmacological test procedure for rheumatoid arthritis. Representative compounds of this invention were also evaluated in a heart allograft standard pharmacological test procedure which measures immunosuppressive activity of the compound tested as well as the ability of the compound tested to inhibit or treat transplant rejection. The procedures for these standard pharmacological test procedures are provided below.
The comitogen-induced thymocyte proliferation procedure (LAF) was used as an in vitro measure of the immunosuppressive effects of representative compounds. Briefly, cells from the thymus of normal BALB/c mice are cultured for 72 hours with PHA and IL-1 and pulsed with tritiated thymidine during the last six hours. Cells are cultured with and without various concentrations of rapamycin, cyclosporin A, or test compound. Cells are harvested and incorporated radioactivity is determined. Inhibition of lymphoproliferation is assessed as percent change in counts per minute from non-drug treated controls. For each compound evaluated, rapamycin was also evaluated for the purpose of comparison. An IC50 was obtained for each test compound as well as for rapamycin. […] The results obtained are provided as an IC50.

[2] = tested on: pinch skin graft; assay: Pinch skin graft survival test procedure; format: in vivo, male BALB/c donors, male C3 H(H-2K) recipients (mice); settings: 4 mg/kg; intraperitoneally or orally; untreated grafts usually rejected within 6-7 days
Experimental: as §1
Representative compounds of this invention were also evaluated in an in vivo test procedure designed to determine the survival time of pinch skin graft from male BALB/c donors transplanted to male C3 H(H-2K) recipients. The method is adapted from Billingham R. E. and Medawar P. B., J. Exp. Biol. 28:385-402, (1951). Briefly, a pinch skin graft from the donor was grafted on the dorsum of the recipient as a allograft, and an isograft was used as control in the same region. The recipients were treated with either varying concentrations of test compounds intraperitoneally or orally. Rapamycin was used as a test control. Untreated recipients serve as rejection control. The graft was monitored daily and observations were recorded until the graft became dry and formed a blackened scab. This was considered as the rejection day. The mean graft survival time (number of days±S.D.) of the drug treatment group was compared with the control group. […] Results are expressed as the mean survival time in days. Untreated (control) pinch skin grafts are usually rejected within 6-7 days. Compounds were tested using a dose of 4 mg/kg.

[3] = tested on: adjuvant arthritis, uninjected (left) hind paw inflammation; assay: Adjuvant arthritis standard pharmacological test procedure; format: in vivo, male Wistar Lewis rats; settings: 2 mg/kg, oral, uninjected paw at day 16; for Percent change in adjuvant arthritis versus control: 7 doses day 0-14, more negative = more potent
Experimental: as §1
The adjuvant arthritis standard pharmacological test procedure measures the ability of test compounds to prevent immune mediated inflammation and inhibit or treat rheumatoid arthritis. The following briefly describes the test procedure used. A group of rats (male inbread Wistar Lewis rats) are pre-treated with the compound to be tested (1 h prior to antigen) and then injected with Freud's Complete Adjuvant (FCA) in the right hind paw to induce arthritis. The rats are then orally dosed on a Monday, Wednesday, Friday schedule from day 0-14 for a total of 7 doses. Both hind paws are measured on days 16, 23, and 30. The difference in paw volume (mL) from day 16 to day 0 is determined and a percent change from control is obtained. […] The right hind paw inflammation, on the other hand, is caused by nonspecific inflammation. Compounds were tested at a dose of 2 mg/kg.

[4] = tested on: heart allograft; assay: Heterotropic heart allograft standard pharmacological test procedure; format: in vivo, BN rat neonate donors, male Lewis rat recipients; settings: 300 μg/day, i.p.; untreated rejected in about 9-10 days
Experimental: as §1
The ability of the compounds of this invention to induce immunosuppression and inhibit or treat transplantation rejection was evaluated in a heterotropic heart allograft standard pharmacological test procedure that emulates transplantation rejection that occurs in humans. The following briefly describes the procedure that was used. […]

[5] = tested on: immunosuppression; settings: cited from earlier work
[6] = tested on: Candida albicans; settings: in vitro and in vivo; cited from earlier work
[7] = tested on: tumor; settings: alone or in combination with picibanil; cited from earlier work
[8] = tested on: experimental allergic encephalomyelitis, a model for multiple sclerosis; settings: in vivo; cited from earlier work
[9] = tested on: adjuvant arthritis, a model for rheumatoid arthritis; settings: in vivo; cited from earlier work
[10] = tested on: formation of IgE-like antibodies; settings: in vivo; cited from earlier work
[11] = 72 h culture with PHA and IL-1, tritiated thymidine incorporation

| Structure (SMILES) | IC50 [1, 11] [nM] | Skin graft survival (mean survival time ± S.D.) [2] [days] | Percent change in adjuvant arthritis versus control [3] [%] | other results |
| --- | --- | --- | --- | --- |
| CO[C@H]1C[C@@H]2CC[C@@H](C)[C@@](O)(O2)C(=O)C(=O)N2CCCC[C@H]2C(=O)O[C@H]([C@H](C)C[C@@H]2CC[C@@H](OC(=O)c3ccc(C)nc3)[C@H](OC)C2)CC(=O)[C@H](C)/C=C(\C)[C@@H](O)[C@@H](OC)C(=O)[C@H](C)C[C@H](C)/C=C/C=C/C=C/1C [Example 3, Rapamycin 42-ester with 6-methylpyridine-3-carboxylic acid] | 0.6 | 12.5 ± 0.58 | -87 |  |
| CO[C@H]1C[C@@H]2CC[C@@H](C)[C@@](O)(O2)C(=O)C(=O)N2CCCC[C@H]2C(=O)O[C@H]([C@H](C)C[C@@H]2CC[C@@H](OC(=O)c3cccnc3C)[C@H](OC)C2)CC(=O)[C@H](C)/C=C(\C)[C@@H](O)[C@@H](OC)C(=O)[C@H](C)C[C@H](C)/C=C/C=C/C=C/1C [Example 1, Rapamycin 42-ester with 2-methylnicotinic acid] | 1 | 11.2 ± 0.8 | -88 | Heart allograft survival (mean survival time) [4]: 29.9 days |
| CO[C@H]1C[C@@H]2CC[C@@H](C)[C@@](O)(O2)C(=O)C(=O)N2CCCC[C@H]2C(=O)O[C@H]([C@H](C)C[C@@H]2CC[C@@H](OC(=O)c3cccnc3)[C@H](OC)C2)CC(=O)[C@H](C)/C=C(\C)[C@@H](O)[C@@H](OC)C(=O)[C@H](C)C[C@H](C)/C=C/C=C/C=C/1C [Example 2, Rapamycin 42-ester with nicotinic acid] | 0.17 | 9.60 ± 0.89 |  |  |
| C=CC[C@@H]1/C=C(\C)C[C@H](C)C[C@H](OC)[C@H]2O[C@@](O)(C(=O)C(=O)N3CCCC[C@H]3C(=O)O[C@H](/C(C)=C/[C@@H]3CC[C@@H](O)[C@H](OC)C3)[C@H](C)[C@@H](O)CC1=O)[C@H](C)C[C@@H]2OC [FK-506] |  |  |  | effective as immunosuppressive agents [5]: effective |
| CO[C@H]1C[C@@H]2CC[C@@H](C)[C@@](O)(O2)C(=O)C(=O)N2CCCC[C@H]2C(=O)O[C@H]([C@H](C)C[C@@H]2CC[C@@H](OC(=O)c3cnc(C)cn3)[C@H](OC)C2)CC(=O)[C@H](C)/C=C(\C)[C@@H](O)[C@@H](OC)C(=O)[C@H](C)C[C@H](C)/C=C/C=C/C=C/1C [Example 4, Rapamycin 42-ester with 5-methylpyrazine-2-carboxylic acid] | 0.28 | 11.33 ± 0.82 | -90 |  |
| CO[C@H]1C[C@@H]2CC[C@@H](C)[C@@](O)(O2)C(=O)C(=O)N2CCCC[C@H]2C(=O)O[C@H]([C@H](C)C[C@@H]2CC[C@@H](O)[C@H](OC)C2)CC(=O)[C@H](C)/C=C(\C)[C@@H](O)[C@@H](OC)C(=O)[C@H](C)C[C@H](C)/C=C/C=C/C=C/1C [rapamycin] |  |  |  | IC50 ([1]; 72 h): 0.5 to 1.9 nM; less immune induced inflammation than control rats [3]: 70-90%; antifungal activity [6]: antifungal activity, particularly against Candida albicans, both in vitro and in vivo; antitumor activity [7]: antitumor activity; effectiveness in experimental allergic encephalomyelitis model [8]: effective; effectiveness in adjuvant arthritis model [9]: effective; inhibition of formation of IgE-like antibodies [10]: effectively inhibited |
